Measured values taken from patent US9045493B2, “Furo[3,2-b]- and thieno[3,2-b]pyridin derivatives” (Merck Patent GmbH, priority 2012, dated 2015).

What was measured:
IKKε = target: T1, IKKε (Homo sapiens, UniProt Q14164); assay: IKKε kinase assay (384-well Flashplate); format: biochemical; conditions: 10 μM ATP, 2 hours at 30° C.; read-out: IKKε enzyme assay IC50
T1 sequence (Q14164 1-716): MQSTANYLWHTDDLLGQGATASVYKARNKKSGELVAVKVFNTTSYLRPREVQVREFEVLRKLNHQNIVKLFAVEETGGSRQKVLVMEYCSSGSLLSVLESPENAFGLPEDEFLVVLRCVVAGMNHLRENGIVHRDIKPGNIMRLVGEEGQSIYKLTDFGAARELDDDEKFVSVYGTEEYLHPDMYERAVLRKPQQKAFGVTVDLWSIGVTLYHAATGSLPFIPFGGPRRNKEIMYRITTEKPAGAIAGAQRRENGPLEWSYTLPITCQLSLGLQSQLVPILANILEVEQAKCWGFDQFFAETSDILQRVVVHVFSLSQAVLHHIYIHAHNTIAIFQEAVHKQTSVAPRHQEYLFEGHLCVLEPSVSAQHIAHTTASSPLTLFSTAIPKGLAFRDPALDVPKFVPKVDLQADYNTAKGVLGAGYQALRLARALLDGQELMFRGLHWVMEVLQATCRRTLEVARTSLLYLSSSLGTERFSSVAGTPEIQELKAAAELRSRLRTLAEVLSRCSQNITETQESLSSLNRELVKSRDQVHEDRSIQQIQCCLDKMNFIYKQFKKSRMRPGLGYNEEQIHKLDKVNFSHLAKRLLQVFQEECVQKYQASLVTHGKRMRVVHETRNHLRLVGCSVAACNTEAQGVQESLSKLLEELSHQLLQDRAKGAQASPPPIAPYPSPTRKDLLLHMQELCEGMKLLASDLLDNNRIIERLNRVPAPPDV
Protocol: The kinase assay is performed either as 384-well Flashplate assay (for e.g. Topcount measurement).
1 nM IKKε, 800 nM biotinylated IκBα(19-42) peptide (Biotin-C6-C6-[…]) and 10 μM ATP (spiked with 0.3 μCi ^33P-ATP/well) are incubated in a total volume of 50 μl (10 mM MOPS, 10 mM Mg-acetat, 0.1 mM EGTA, 1 mM Dithiothreitol, 0.02% Brij35, 0.1% BSA, 0.1% BioStab, pH 7.5) with or without test compound for 2 hours at 30° C. The reaction is stopped with 25 μl 200 mM EDTA. After 30 Min at room temperature the liquid is removed and each well washed thrice with 100 μl 0.9% sodium chloride solution. […] Radioactivity is measured with Topcount (PerkinElmer). Results (e.g. IC50-values) are calculated with program tools provided by the IT-department (e.g. AssayExplorer, Symyx).

[1] = target: T2, TANK binding kinase (TBK1) (Homo sapiens, UniProt Q9UHD2); assay: TBK1 enzyme assay (384-well Flashplate kinase assay); format: biochemical; conditions: 10 μM ATP, 120 Min at 30° C.
T2 sequence (Q9UHD2 1-729): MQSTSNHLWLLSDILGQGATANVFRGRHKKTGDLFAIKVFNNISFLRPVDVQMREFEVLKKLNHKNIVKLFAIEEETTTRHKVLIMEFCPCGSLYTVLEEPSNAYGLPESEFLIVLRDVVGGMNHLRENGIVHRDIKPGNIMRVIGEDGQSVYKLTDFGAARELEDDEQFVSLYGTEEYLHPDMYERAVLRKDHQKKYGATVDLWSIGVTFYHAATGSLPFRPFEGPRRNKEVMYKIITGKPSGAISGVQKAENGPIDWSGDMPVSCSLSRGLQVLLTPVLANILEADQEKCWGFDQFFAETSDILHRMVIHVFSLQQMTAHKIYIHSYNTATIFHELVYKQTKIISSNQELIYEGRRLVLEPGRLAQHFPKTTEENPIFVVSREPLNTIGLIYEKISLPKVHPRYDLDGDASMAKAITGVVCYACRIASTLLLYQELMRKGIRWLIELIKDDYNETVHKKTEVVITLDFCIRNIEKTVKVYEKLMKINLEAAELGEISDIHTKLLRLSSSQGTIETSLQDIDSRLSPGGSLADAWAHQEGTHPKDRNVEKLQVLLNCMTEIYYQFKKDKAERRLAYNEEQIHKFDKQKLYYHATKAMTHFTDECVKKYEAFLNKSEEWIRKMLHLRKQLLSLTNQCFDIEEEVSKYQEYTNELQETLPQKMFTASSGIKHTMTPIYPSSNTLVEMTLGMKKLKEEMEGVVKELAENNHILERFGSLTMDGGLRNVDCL
Protocol: The kinase assay is performed as 384-well Flashplate assay (for e.g. Topcount measurement.
0.6 nM TANK binding kinase (TBK1), 800 nM biotinylated MELK-derived peptide (Biotin-Ah-Ah-[…]) and 10 μM ATP (spiked with 0.25 μCi ^33P-ATP/well) are incubated in a total volume of 50 μl (10 mM MOPS, 10 mM Mg-acetat, 0.1 mM EGTA, 1 mM DTT, 0.02% Brij35, 0.1% BSA, pH 7.5) with or without test compound for 120 Min at 30° C. The reaction is stopped with 25 μl 200 mM EDTA. After 30 Min at room temperature the liquid is removed and each well washed thrice with 100 μl 0.9% sodium chloride solution. Nonspecific reaction is determined in presence of 100 nM Staurosporine. Radioactivity is measured in a Topcount (PerkinElmer). Results (e.g. IC50-values) are calculated with program tools provided by the IT-department (e.g. AssayExplorer, Symyx).

CCN(C)C(=O)c1ccc(-c2cc3nccc(-c4ccc(OC5CCOCC5)c(C#N)c4)c3o2)cc1 [Compound A24, 4-{7-[3-cyano-4-(tetrahydro-pyran-4-yloxy)-phenyl]-furo[3,2-b]pyridin-2-yl}-N-ethyl-N-methyl-benzamide]
IC50 (IKKε): < 0.3 µM | IC50 [1]: < 0.3 µM

CN(CCO)C(=O)c1ccc(-c2cc3nccc(-c4ccc(OC5CCOCC5)c(C#N)c4)c3o2)cc1 [Compound A25, 4-{7-[3-cyano-4-(tetrahydro-pyran-4-yloxy)-phenyl]-furo[3,2-b]pyridin-2-yl}-N-(2-hydroxy-ethyl)-N-methyl-benzamide]
IC50 (IKKε): < 0.3 µM | IC50 [1]: < 0.3 µM

COCCN(C)C(=O)c1ccc(-c2cc3nccc(-c4ccc(OC5CCOCC5)c(C#N)c4)c3o2)cc1 [Compound A26, 4-{7-[3-cyano-4-(tetrahydro-pyran-4-yloxy)-phenyl]-furo[3,2-b]pyridin-2-yl}-N-(2-methoxy-ethyl)-N-methyl-benzamide]
IC50 (IKKε): < 0.3 µM | IC50 [1]: < 0.3 µM

CCN(CCOC)C(=O)c1cccc(-c2cc3nccc(-c4ccc(OC5CCOCC5)c(C#N)c4)c3o2)c1 [Compound A26a, 3-{7-[3-cyano-4-(tetrahydro-pyran-4-yloxy)-phenyl]-furo[3,2-b]pyridin-2-yl}-N-ethyl-N-(2-methoxy-ethyl)-benzamide]
IC50 (IKKε): 0.3 to 3 µM | IC50 [1]: 0.3 to 3 µM

CN(C)CCNC(=O)c1ccc(-c2cc3nccc(-c4ccc(OC5CCOCC5)c(C#N)c4)c3o2)cc1 [Compound A27, 4-{7-[3-cyano-4-(tetrahydro-pyran-4-yloxy)-phenyl]-furo[3,2-b]pyridin-2-yl}-N-(2-dimethylamino-ethyl)-benzamide]
IC50 (IKKε): < 0.3 µM | IC50 [1]: < 0.3 µM

CN(C)CCN(C)C(=O)c1ccc(-c2cc3nccc(-c4ccc(OC5CCOCC5)c(C#N)c4)c3o2)cc1 [Compound A28, 4-{7-[3-cyano-4-(tetrahydro-pyran-4-yloxy)-phenyl]-furo[3,2-b]pyridin-2-yl}-N-(2-dimethylamino-ethyl)-N-methyl-benzamide]
IC50 (IKKε): < 0.3 µM | IC50 [1]: < 0.3 µM

COc1cc(-c2cc3nccc(-c4ccc(OC5CCOCC5)c(C#N)c4)c3o2)ccc1C(=O)N1CC2(COC2)C1 [Compound A30, 5-{2-[3-methoxy-4-(2-oxa-6-aza-spiro[3.3]heptane-6-carbonyl)-phenyl]-furo[3,2-b]pyridin-7-yl}-2-(tetrahydro-pyran-4-yloxy)-benzonitrile]
IC50 (IKKε): < 0.3 µM | IC50 [1]: < 0.3 µM

CCN(CCN(C)C)C(=O)c1ccc(-c2cc3nccc(-c4ccc(OC5CCOCC5)c(C#N)c4)c3o2)cc1OC [Compound A31, 4-{7-[3-cyano-4-(tetrahydro-pyran-4-yloxy)-phenyl]-furo[3,2-b]pyridin-2-yl}-N-(2-dimethylamino-ethyl)-N-ethyl-2-methoxy-benzamide]
IC50 (IKKε): < 0.3 µM | IC50 [1]: < 0.3 µM

COc1cc(-c2cc3nccc(-c4ccc(OC5CCOCC5)c(C#N)c4)c3o2)ccc1C(=O)NCCN(C)C [Compound A32, 4-{7-[3-cyano-4-(tetrahydro-pyran-4-yloxy)-phenyl]-furo[3,2-b]pyridin-2-yl}-N-(2-dimethylamino-ethyl)-2-methoxy-benzamide]
IC50 (IKKε): < 0.3 µM | IC50 [1]: < 0.3 µM

N#Cc1cc(-c2ccnc3cc(-c4ccc(C(=O)NCCO)cc4)oc23)ccc1OC1CCOCC1 [Compound A33, 4-{7-[3-cyano-4-(tetrahydro-pyran-4-yloxy)-phenyl]-furo[3,2-b]pyridin-2-yl}-N-(2-hydroxy-ethyl)-benzamide]
IC50 (IKKε): < 0.3 µM | IC50 [1]: < 0.3 µM

N#Cc1cc(-c2ccnc3cc(-c4ccc(C(=O)N5CCNCC5)cc4)oc23)ccc1OC1CCOCC1 [Compound A34, 5-{2-[4-(piperazine-1-carbonyl)-phenyl]-furo[3,2-b]pyridin-7-yl}-2-(tetrahydro-pyran-4-yloxy)-benzonitrile]
IC50 (IKKε): < 0.3 µM | IC50 [1]: < 0.3 µM

COc1cc(-c2cc3nccc(-c4ccc(OC5CCOCC5)c(C#N)c4)c3o2)ccc1C(=O)N1CCNCC1 [Compound A35, 5-{2-[3-methoxy-4-(piperazin-1-carbonyl)-phenyl]-furo[3,2-b]pyridin-7-yl}-2-(tetrahydro-pyran-4-yloxy)-benzonitrile]
IC50 (IKKε): < 0.3 µM | IC50 [1]: < 0.3 µM

N#Cc1cc(-c2ccnc3cc(-c4cnn(C5CCNCC5)c4)oc23)ccc1OC1CCOCC1 [Compound A36, 4-(4-{7-[3-Cyano-4-(tetrahydro-pyran-4-yloxy)-phenyl]-furo[3,2-b]pyridin-2-yl}-pyrazol-1-yl)-piperidin]
IC50 (IKKε): < 0.3 µM | IC50 [1]: < 0.3 µM

CN1CCN(C(=O)c2ccc(-c3cc4nccc(-c5ccc(OCC6CCC6)c(C#N)c5)c4o3)cc2)CC1 [Compound A37]
IC50 (IKKε): < 0.3 µM | IC50 [1]: < 0.3 µM

N#Cc1cc(-c2ccnc3cc(-c4ccc(C(=O)N5CCNCC5)cc4)oc23)ccc1OCC1CCC1 [Compound A38]
IC50 (IKKε): < 0.3 µM | IC50 [1]: < 0.3 µM

CN1CCN(C(=O)c2ccc(-c3cc4nccc(-c5ccc(OCC6CC6)c(C#N)c5)c4o3)cc2)CC1 [Compound A39]
IC50 (IKKε): < 0.3 µM | IC50 [1]: < 0.3 µM

N#Cc1cc(-c2ccnc3cc(-c4ccc(C(=O)N5CCNCC5)cc4)oc23)ccc1OCC1CC1 [Compound A40]
IC50 (IKKε): < 0.3 µM | IC50 [1]: < 0.3 µM

CN(CCO)C(=O)c1ccc(-c2cc3nccc(-c4ccc(OCC5CC5)c(C#N)c4)c3o2)cc1 [Compound A41]
IC50 (IKKε): < 0.3 µM | IC50 [1]: < 0.3 µM

CN1CCN(C(=O)c2ccc(-c3cc4nccc(-c5ccc(OC6CCOC6)c(C#N)c5)c4o3)cc2)CC1 (stereo not shown) [Compound A42]
IC50 (IKKε): < 0.3 µM | IC50 [1]: < 0.3 µM

N#Cc1cc(-c2ccnc3cc(-c4ccc(C(=O)N5CCNCC5)cc4)oc23)ccc1OC1CCOC1 (stereo not shown) [Compound A43]
IC50 (IKKε): < 0.3 µM | IC50 [1]: < 0.3 µM

CN(CCO)C(=O)c1ccc(-c2cc3nccc(-c4ccc(OC5CCOCC5)c(C#N)c4)c3s2)cc1 [Compound A44]
IC50 (IKKε): < 0.3 µM | IC50 [1]: < 0.3 µM

CN1CCN(C(=O)c2ccc(-c3cc4nccc(-c5ccc(OC6CCOCC6)c(C#N)c5)c4s3)cc2)CC1 [Compound A45]
IC50 (IKKε): < 0.3 µM | IC50 [1]: < 0.3 µM

Cn1cc(-c2cc3nccc(-c4ccc(OC5CCOCC5)c(C#N)c4)c3o2)cn1 [Compound A46]
IC50 (IKKε): < 0.3 µM | IC50 [1]: < 0.3 µM

N#Cc1cc(-c2ccnc3cc(-c4ccc(CN5CCOCC5)s4)oc23)ccc1OC1CCOCC1 [Compound A47]
IC50 (IKKε): < 0.3 µM | IC50 [1]: < 0.3 µM

N#Cc1cc(-c2ccnc3cc(-c4cnn(CCN5CCOCC5)c4)oc23)ccc1OC1CCOCC1 [Compound A48]
IC50 (IKKε): < 0.3 µM | IC50 [1]: < 0.3 µM

Cc1ccc(-c2cc3nccc(-c4ccc(OC5CCOCC5)c(C#N)c4)c3o2)o1 [Compound A49]
IC50 (IKKε): < 0.3 µM | IC50 [1]: < 0.3 µM
